Reference: ChEMBL document CHEMBL1145202, “A series of ligands displaying a remarkable agonistic-antagonistic profile at the adenosine A1 receptor” (J Med Chem, 2005)

What was measured:
[1] = molecular target: T1, Adenosine receptor A1 (Homo sapiens) (UniProt P30542); test: Effect on forskolin-induced cAMP levels at human A1 adenosine receptor compared to CPA (full agonist, 100% inhibition) and DPCPX(full inverse agonist, 100% stimulation); assay type: functional
T1 sequence (whole entry): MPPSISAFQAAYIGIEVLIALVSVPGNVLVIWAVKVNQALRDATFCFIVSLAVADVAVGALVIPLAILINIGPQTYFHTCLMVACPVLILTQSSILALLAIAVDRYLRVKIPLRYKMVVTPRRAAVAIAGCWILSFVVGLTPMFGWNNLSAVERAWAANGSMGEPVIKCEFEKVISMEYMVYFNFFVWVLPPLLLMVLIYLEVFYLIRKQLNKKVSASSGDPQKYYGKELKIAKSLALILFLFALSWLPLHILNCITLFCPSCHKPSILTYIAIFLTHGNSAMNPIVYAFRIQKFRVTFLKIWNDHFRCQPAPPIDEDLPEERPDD

[2] = molecular target: Adenosine receptor A2a (Homo sapiens) (UniProt P29274); test: Percent displacement of [3H]-ZM 241385 binding to human adenosine A2A receptor expressed in CHO cells at 1 uM; assay type: cell-based
Sequence of Adenosine receptor A2a (Homo sapiens) (P29274 whole entry): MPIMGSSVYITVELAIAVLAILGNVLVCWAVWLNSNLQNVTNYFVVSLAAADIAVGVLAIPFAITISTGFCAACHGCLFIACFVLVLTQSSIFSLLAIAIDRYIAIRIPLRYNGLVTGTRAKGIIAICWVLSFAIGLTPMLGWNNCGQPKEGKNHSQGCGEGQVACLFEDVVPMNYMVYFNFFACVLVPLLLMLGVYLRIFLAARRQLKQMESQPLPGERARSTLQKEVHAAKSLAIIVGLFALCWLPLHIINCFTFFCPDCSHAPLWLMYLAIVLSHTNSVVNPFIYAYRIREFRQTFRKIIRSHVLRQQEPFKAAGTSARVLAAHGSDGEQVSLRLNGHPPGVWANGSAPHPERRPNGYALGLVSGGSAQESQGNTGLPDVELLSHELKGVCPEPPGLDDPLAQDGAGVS

[3] = molecular target: T2, Adenosine receptor A3 (Homo sapiens) (UniProt P0DMS8); test: Percent displacement of [125I]AB-MECA binding to human adenosine A3 receptor expressed in HEK 293 cells at 1 uM; assay type: cell-based; conditions: HEK293
T2 sequence (whole entry): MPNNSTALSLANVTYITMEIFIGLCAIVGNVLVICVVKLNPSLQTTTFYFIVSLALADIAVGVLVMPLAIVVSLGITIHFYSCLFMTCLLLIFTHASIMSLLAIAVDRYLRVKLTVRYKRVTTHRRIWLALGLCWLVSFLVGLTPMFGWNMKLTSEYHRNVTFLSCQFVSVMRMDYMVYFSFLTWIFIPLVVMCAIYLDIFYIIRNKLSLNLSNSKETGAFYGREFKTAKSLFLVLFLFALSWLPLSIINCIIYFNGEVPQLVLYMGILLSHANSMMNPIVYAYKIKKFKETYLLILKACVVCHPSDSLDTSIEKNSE

[4] = molecular target: T3, Adenosine receptor A1 (Homo sapiens, UniProt P30542); test: biochemical
T3 sequence (P30542 whole entry): T1 sequence (whole entry)
Description: Displacement of [3H]DPCPX binding to human adenosine A1 receptor expressed in CHO cells

[5] = molecular target: T1, Adenosine receptor A1 (Homo sapiens); test: Percent displacement of [3H]DPCPX binding to human adenosine A1 receptor expressed in CHO cells at 1 uM; assay type: cell-based

Compound	Change in cAMP [1]	Displacement [2]	Displacement [3]	Ki [4]	Displacement [5]
OC[C@H]1O[C@@H](n2cnc3c(NC4CCCC4)ncnc32)[C@H](O)[C@@H]1O	-100%	–	–	–	–
N#Cc1c(N)nc(SCCO)c(C#N)c1-c1ccc(F)cc1	-51%	4%	0%	81 nM	–
COc1ccc(-c2c(C#N)c(N)nc(SCCO)c2C#N)cc1	-16%	8%	21%	41 nM	–
COc1ccc(-c2c(C#N)c(N)nc(SCCO)c2C#N)cc1OC	–	25%	0%	–	25%
N#Cc1c(N)nc(SCCO)c(C#N)c1-c1ccc(C(F)(F)F)cc1	48%	13%	0%	150 nM	–
N#Cc1c(N)nc(SCCO)c(C#N)c1-c1ccc(OC(F)(F)F)cc1	12%	0%	10%	156 nM	–
Cc1ccc(-c2c(C#N)c(N)nc(SCCO)c2C#N)cc1	-16%	20%	0%	49 nM	–
N#Cc1c(N)nc(SCCO)c(C#N)c1-c1cccc(F)c1	-102%	19%	8%	40 nM	–
N#Cc1c(N)nc(SCCO)c(C#N)c1-c1cccc(OC(F)(F)F)c1	80%	3%	11%	30 nM	–
N#Cc1c(N)nc(SCCO)c(C#N)c1-c1cccc(C(F)(F)F)c1	85%	22%	49%	14 nM	–
N#Cc1c(N)nc(SCCO)c(C#N)c1-c1ccc(O)cc1	-93%	37%	0%	23 nM	–
Cn1cnc2c(NC3CCCC3)ncnc21	72%	–	15%	1080 nM	–
CCCn1c(=O)c2[nH]c(C3CCCC3)nc2n(CCC)c1=O	100%	–	–	–	–
CN(C)c1ccc(-c2c(C#N)c(N)nc(SCCO)c2C#N)cc1	-65%	0%	7%	245 nM	–
N#Cc1c(N)nc(SCCO)c(C#N)c1-c1ccc2c(c1)OCO2	-111%	33%	13%	11 nM	–
Cc1cccc(-c2c(C#N)c(N)nc(SCCO)c2C#N)c1	-78%	29%	5%	81 nM	–
COc1cccc(-c2c(C#N)c(N)nc(SCCO)c2C#N)c1	-58%	21%	18%	4.3 nM	–
N#Cc1c(N)nc(SCCO)c(C#N)c1-c1cccc(O)c1	-105%	25%	16%	12 nM	–
N#Cc1c(N)nc(SCCO)c(C#N)c1-c1ccccc1	-72%	23%	26%	15 nM	–
N#Cc1c(N)nc(SCCO)c(C#N)c1-c1ccc(OC(F)F)cc1	4%	0%	23%	34 nM	–
N#Cc1c(N)nc(SCCO)c(C#N)c1-c1cccc(OC(F)F)c1	6%	8%	12%	40 nM	–
